Measurements taken from patent US9193720B2, “Pyridin-3-yl acetic acid derivatives as inhibitors of human immunodeficiency virus replication” (priority 2014, dated 2015).

Test system: NL-RLuc virus
Assay: Inhibition of HIV Replication (NL-RLuc luciferase reporter virus in MT-2 cells)
Format: cell-based
Settings: Human immunodeficiency virus 1, MT2, 120 h
How it was run: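 Replication-competent virus with Renilla luciferase in place of part of nef, made in 293T cells and titered in MT-2 cells. Infected MT-2 cells grown 5 days with serially diluted compound in RPMI 1640/10% FBS, 10 mM HEPES pH 7.55. Luciferase read-out; EC50 from median effect equation, at least 2 experiments.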

SMILES	EC50 [nM]
Cc1nc(C)c([C@H](OC(C)(C)C)C(=O)O)c(N2CCC(C)(C#N)CC2)c1-c1ccc(OCCc2ccc(F)cc2)cc1 [Example 78, (S)-2-(tert-butoxy)-2-(4-(4-cyano-4-methylpiperidin-1-yl)-5-(4-(4-fluorophenethoxy)phenyl)-2,6-dimethylpyridin-3-yl)acetic acid]	4
CC(C)=C1CCN(c2c(-c3ccc(OCCc4ccc(F)cc4)cc3)c(C)nc(C)c2[C@H](OC(C)(C)C)C(=O)O)CC1 [Example 79, (S)-2-(tert-butoxy)-2-(5-(4-(4-fluorophenethoxy)phenyl)-2,6-dimethyl-4-(4-(propan-2-ylidene)piperidin-1-yl)pyridin-3-yl)acetic acid]	291
Cc1nc(C)c([C@H](OC(C)(C)C)C(=O)O)c(N2CCC(Cc3ccccc3)CC2)c1-c1ccc(OCCc2ccc(F)cc2)cc1 [Example 80, (S)-2-(4-(4-benzylpiperidin-1-yl)-5-(4-(4-fluorophenethoxy)phenyl)-2,6-dimethylpyridin-3-yl)-2-(tert-butoxy)acetic acid]	1770
Cc1nc(C)c([C@H](OC(C)(C)C)C(=O)O)c(N2CCC(C)(F)CC2)c1-c1ccc(OCCc2ccc(F)cc2)cc1 [Example 81, (S)-2-(tert-butoxy)-2-(4-(4-fluoro-4-methylpiperidin-1-yl)-5-(4-(4-fluorophenethoxy)phenyl)-2,6-dimethylpyridin-3-yl)acetic acid]	4
Cc1nc(C)c([C@H](OC(C)(C)C)C(=O)O)c(N2CC(C)CC(C)C2)c1-c1ccc(OCCc2ccc(F)cc2)cc1 (some centres unmarked) [Example 82]	5430
